Test results: ChEMBL document CHEMBL1158280, “Specific inhibition of human immunodeficiency virus type 1 reverse transcriptase mediated by soulattrolide, a coumarin isolated from the latex of calophyllum teysmannii” (J Nat Prod, 1996)
Calls of active or inactive are those of the source. The calls are words filed in the database; no cut-off is given here.

Assays:
[1] = target: T1, Human immunodeficiency virus type 1 reverse transcriptase (Human immunodeficiency virus 1, UniProt Q72547); assay: Inhibition of DNA dependent DNA polymerase activity of HIV1 recombinant reverse transcriptase p66/p51
[2] = target: T2, DNA polymerase beta (Homo sapiens, UniProt P06746); assay: Inhibition of DNA polymerase beta
[3] = target: T1, Human immunodeficiency virus type 1 reverse transcriptase; assay: Inhibition of RNA dependent DNA polymerase activity of HIV1 recombinant reverse transcriptase p66/p51
[4] = system: Human immunodeficiency virus 1; assay: Inhibition of TIBO-resistant HIV1 reverse transcriptase p66/p51 Tyr181 mutant expressed in Escherichia coli at 495 uM
[5] = system: Human immunodeficiency virus 2; assay: Inhibition of HIV2 reverse transcriptase p68/p54 expressed in Escherichia coli
[6] = target: Human immunodeficiency virus type 1 reverse transcriptase (Human immunodeficiency virus 1) (UniProt Q72547); assay: Inhibition of RNA dependent DNA polymerase activity of HIV1 recombinant reverse transcriptase p66/p51 at 495 uM
[7] = system: Avian myeloblastosis virus; assay: Inhibition of Avian myeloblastosis virus reverse transcriptase at 495 uM
[8] = target: T3, DNA polymerase alpha catalytic subunit (Homo sapiens) (UniProt P09884); assay: (§1) Inhibition of DNA polymerase alpha
T3 sequence (whole entry): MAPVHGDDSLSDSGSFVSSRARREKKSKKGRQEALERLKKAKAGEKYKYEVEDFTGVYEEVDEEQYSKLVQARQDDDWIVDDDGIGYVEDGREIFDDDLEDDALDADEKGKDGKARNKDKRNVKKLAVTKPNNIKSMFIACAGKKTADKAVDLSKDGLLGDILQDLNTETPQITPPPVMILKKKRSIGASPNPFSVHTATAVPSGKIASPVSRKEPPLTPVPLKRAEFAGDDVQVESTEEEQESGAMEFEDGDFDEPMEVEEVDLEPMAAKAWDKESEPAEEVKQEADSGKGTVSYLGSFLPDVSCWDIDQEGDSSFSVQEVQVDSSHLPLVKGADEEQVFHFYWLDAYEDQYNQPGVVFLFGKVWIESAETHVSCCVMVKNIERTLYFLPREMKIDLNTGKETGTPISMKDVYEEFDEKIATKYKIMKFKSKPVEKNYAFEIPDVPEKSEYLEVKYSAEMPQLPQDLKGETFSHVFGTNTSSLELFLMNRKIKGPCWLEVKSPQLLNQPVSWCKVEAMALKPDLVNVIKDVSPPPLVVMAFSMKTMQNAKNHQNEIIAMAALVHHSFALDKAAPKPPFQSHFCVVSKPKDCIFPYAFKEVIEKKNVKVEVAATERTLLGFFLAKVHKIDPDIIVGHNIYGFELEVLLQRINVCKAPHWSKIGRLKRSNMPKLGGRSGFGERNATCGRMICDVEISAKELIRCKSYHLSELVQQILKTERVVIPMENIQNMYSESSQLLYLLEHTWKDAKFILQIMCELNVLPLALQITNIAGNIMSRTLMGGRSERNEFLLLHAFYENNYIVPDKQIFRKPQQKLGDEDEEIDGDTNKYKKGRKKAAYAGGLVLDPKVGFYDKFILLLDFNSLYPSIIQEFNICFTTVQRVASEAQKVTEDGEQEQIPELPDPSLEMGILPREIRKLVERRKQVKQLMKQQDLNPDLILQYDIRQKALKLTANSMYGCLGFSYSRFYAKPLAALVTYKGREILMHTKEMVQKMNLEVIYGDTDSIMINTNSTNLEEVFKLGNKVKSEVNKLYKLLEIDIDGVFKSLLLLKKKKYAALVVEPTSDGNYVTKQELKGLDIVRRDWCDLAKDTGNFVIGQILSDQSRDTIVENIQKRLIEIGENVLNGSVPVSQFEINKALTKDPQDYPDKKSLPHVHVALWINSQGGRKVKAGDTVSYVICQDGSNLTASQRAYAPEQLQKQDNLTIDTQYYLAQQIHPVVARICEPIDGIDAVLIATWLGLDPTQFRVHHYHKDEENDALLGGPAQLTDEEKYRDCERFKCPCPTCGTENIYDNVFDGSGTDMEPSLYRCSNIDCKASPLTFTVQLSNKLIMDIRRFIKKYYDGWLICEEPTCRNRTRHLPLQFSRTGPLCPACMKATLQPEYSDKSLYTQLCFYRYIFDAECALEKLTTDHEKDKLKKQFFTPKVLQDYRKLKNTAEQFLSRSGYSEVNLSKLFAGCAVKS

[9] = system: Human immunodeficiency virus 1; assay: Inhibition of TIBO-resistant HIV1 reverse transcriptase p66/p51 Tyr181 mutant expressed in Escherichia coli
[10] = Inhibition of Escherichia coli RNase H
[11] = target: T3, DNA polymerase alpha catalytic subunit (Homo sapiens); assay: Inhibition of DNA polymerase alpha at 495 uM
[12] = system: Avian myeloblastosis virus; assay: Inhibition of Avian myeloblastosis virus reverse transcriptase
[13] = target: T2, DNA polymerase beta; assay: Inhibition of DNA polymerase beta at 495 uM
[14] = system: Escherichia coli; assay: Inhibition of Escherichia coli RNase H at 495 uM
[15] = target: Human immunodeficiency virus type 1 reverse transcriptase (Human immunodeficiency virus 1) (UniProt Q72547); assay: Inhibition of DNA dependent DNA polymerase activity of HIV1 recombinant reverse transcriptase p66/p51 at 495 uM
[16] = system: Human immunodeficiency virus 2; assay: Inhibition of HIV2 reverse transcriptase p68/p54 expressed in Escherichia coli at 495 uM
[17] = Inhibition of RNA polymerase at 495 uM
[18] = Inhibition of RNA polymerase
[19] = target: T4, DNA polymerase alpha catalytic subunit (Homo sapiens, UniProt P09884); assay: as §1
T4 sequence (P09884 whole entry): T3 sequence (whole entry)

CCCc1cc(=O)oc2c3c(c4c(c12)OC(C)(C)C=C4)O[C@H](C)[C@@H](C)[C@@H]3O [CALANOLIDE A]
IC50 [1]: 0.32 µM
IC50 [2]: 205 µM

CCCc1cc(=O)oc2c3c(c4c(c12)OC(C)(C)C=C4)O[C@@H](C)[C@H](C)[C@@H]3O [COSTATOLIDE]
IC50 [3]: 1.4 µM
IC50 [1]: 0.29 µM

C[C@H]1[C@H](C)Oc2c3c(c4c(-c5ccccc5)cc(=O)oc4c2[C@H]1O)OC(C)(C)C=C3 [SOULATTROLIDE]
inhibition [4]: 31.5%
Activity [5]: inactive
inhibition [6]: 96.2%
IC50 [3]: 0.73 µM
inhibition [7]: 20.2%
Activity [8]: inactive
Activity [9]: inactive
IC50 [10]: 69.5 µM
IC50 [1]: 0.34 µM
IC50 [2]: > 495 µM
inhibition [11]: 28.1%
Activity [12]: inactive
inhibition [13]: 49.6%
inhibition [14]: 86.5%
inhibition [15]: 87.2%
inhibition [16]: 0.7%
inhibition [17]: 29.7%
Activity [18]: inactive

Cc1cn([C@H]2C[C@H](N=[N+]=[N-])[C@@H](CO[P@](=O)(O)O[P@](=O)(O)OP(=O)(O)O)O2)c(=O)[nH]c1=O [ZIDOVUDINE TRIPHOSPHATE]
IC50 [19]: 11 µM
IC50 [1]: 0.051 µM
IC50 [2]: 16 µM
